Data on 8 compounds can be found in PMC6273194, “Synthesis and Evaluation of Aminothiazole-Paeonol Derivatives as Potential Anticancer Agents” (Molecules, 2016).

In test [1] the test system is BALB/3T3 cells. Put plainly: MTT cell viability assay, embryonic fibroblast BALB/3T3. Particulars: Mus musculus, BALB/3T3 fibroblasts, 48 h. The format is cell-based. The procedure:
(§1) Cell lines, including human gastric adenocarcinoma (AGS), human cervix adenocarcinoma (HeLa), human pancreas adenocarcinoma (PaTu8988t), human colorectal adenocarcinoma (HT-29), human glioblastoma (U87-MG), human lung adenocarcinoma (A549), mouse colon carcinoma (CT26.WT) cells and embryonic fibroblast (BALB/3T3) were purchased from Bioresource Collection and Research Center (BCRC, Taiwan) to evaluate anticancer activity of aminothiazole-paeonol derivatives. Five cell lines were cultured in different media from Gibco (Life Technologies, Grand Island, NY, USA) and Hyclone (GE Healthcare Life Science). Cells were cultured in 90% medium mixed with 10% serum at 37 °C in humidified atmosphere with 5% CO2 and grown in T-75 flask with a feeding cycle of two to three days. The composition and procedures of preparing culture media for different cell lines were followed by instruction manual of suppliers.
(§2) The different cell lines were seeded into 96-well tissue culture plates at a concentration of 5 × 10^3 cells/100 µL/well overnight. Subsequently, the cells were treated with serial concentrations of seven paeonol derivatives. After 48 h of incubation, cell viability of each cell line was determined by MTT colorimetric assay. Briefly, 100 µL of 2 mg/mL MTT reagent (Sigma-Aldrich, St. Louis, MO, USA) was added to each well and incubated for 4 h at 37 °C. Later, the medium was aspirated and 100 µL of dimethyl sulphoxide (DMSO) added to each well; finally, the OD595 of each well was measured by ELISA reader (TECAN, Wien, Austria).

Test [2] has as its system human gastric adenocarcinoma (AGS) cells. Put plainly: MTT cell viability assay, AGS. The format is cell-based. As to conditions: 48 h. As to the method:
as §1, §2

The test system of test [3] is human cervix adenocarcinoma (HeLa) cells. The test can be described thus: MTT cell viability assay, HeLa. Type of test: cell-based. As to conditions: 48 h. As to the method:
as §1, §2

The subject of test [4] is human pancreas adenocarcinoma (PaTu8988t) cells. Put plainly: MTT cell viability assay, PaTu8988t. The format is cell-based. As to conditions: PaTu 8988t, 48 h. As to the method:
as §1, §2

Test [5] has as its system human colorectal adenocarcinoma (HT-29) cells. The test can be described thus: MTT cell viability assay, HT-29. As to conditions: HT-29, 48 h. The format is cell-based. The procedure: as §1, §2
The subject of test [6] is human glioblastoma (U87-MG) cells. Put plainly: MTT cell viability assay, U87-MG. Type of test: cell-based. Particulars: U-87 MG, 48 h. As to the method: as §1, §2
The subject of test [7] is human lung adenocarcinoma (A549) cells. Put plainly: MTT cell viability assay, A549. The format is cell-based. Particulars: A549, 48 h. As to the method:
as §1, §2

The subject of test [8] is mouse colon carcinoma (CT26.WT) cells. The test can be described thus: MTT cell viability assay, CT26.WT. Type of test: cell-based. As to conditions: 48 h. As to the method: as §1, §2
Test [9] has as its system BALB/3T3 cells. As to conditions: BALB/3T3, 72 h after treatment; ref [25],[26],[27],[28],[29],[30],[31],[32]; cited from earlier work.
For test [10], the system named is human gastric adenocarcinoma (AGS) cells. As to conditions: 24 h after treatment, ref [25],[26],[27],[28],[29],[30],[31],[32]; cited from earlier work.
Test [11] concerns human cervix adenocarcinoma (HeLa) cells. Particulars: 48 h after treatment, ref [25],[26],[27],[28],[29],[30],[31],[32]; cited from earlier work.
Test [12] has as its system human pancreas adenocarcinoma (PaTu8988t) cells. Particulars: 48 h after treatment, ref [25],[26],[27],[28],[29],[30],[31],[32]; cited from earlier work.
For test [13], the system named is human colorectal adenocarcinoma (HT-29) cells. As to conditions: HT-29, 48 h after treatment; ref [25],[26],[27],[28],[29],[30],[31],[32]; cited from earlier work.
The subject of test [14] is human glioblastoma (U87-MG) cells. Particulars: 48 h after treatment, ref [25],[26],[27],[28],[29],[30],[31],[32]; cited from earlier work.
Test [15] deals with human lung adenocarcinoma (A549) cells. Particulars: A549, 48 h after treatment; ref [25],[26],[27],[28],[29],[30],[31],[32]; cited from earlier work.
The subject of test [16] is mouse colon carcinoma (CT26.WT) cells. As to conditions: 72 h after treatment, ref [25],[26],[27],[28],[29],[30],[31],[32]; cited from earlier work.

Read-outs that look alike come from different tables or passages of the source.

As to `O=c1[nH]cc(F)c(=O)[nH]1` [Compound 5-FU, 5-fluorouracil, reference compound], the IC50 in test [1] was 1 µM; in [2], 43.8 µM; in test [3], 2.2 µM; in test [4] it was 12.5 µM; in [5], 7.2 µM; in test [6] it was over 50 µM. For the same compound, the IC50 is over 50 µM in test [7]; 9.2 µM in test [8]; 13 µM in test [9]; 79.5 µM in test [10]; 0.232 µM in [11]; 11.3 µM in test [12]. Further, the IC50 in test [13] is 19.3 µM; in test [14], 4.9 µM; in [15], 10.3 µM; in test [16], 61 µM.

Turning to `COc1ccc(-c2csc(NS(=O)(=O)c3ccccc3)n2)c(O)c1` [Compound 13a, N-[4-(2-Hydroxy-4-methoxyphenyl)thiazol-2-yl]benzenesulfonamide], the IC50 was over 50 µM in [1]; over 50 µM in test [2]; over 50 µM in test [3]; 31.1 µM in [4]; 20.7 µM in test [5]; over 50 µM in test [6]. For the same compound, the IC50 in [7] and in [8] was over 50 µM throughout.

For `COc1ccc(-c2csc(NS(=O)(=O)c3ccc(C)cc3)n2)c(O)c1` [Compound 13b, N-[4-(2-Hydroxy-4-methoxyphenyl)thiazol-2-yl]-4-methylbenzenesulfonamide], the IC50 in test [1] is over 50 µM; in test [2] it was 22 µM; in test [3], 27.4 µM; in test [4] it was 38.7 µM; in test [5] it was 14.1 µM; in test [6] it was over 50 µM. Further, the IC50 in test [7] and in test [8] was over 50 µM throughout.

Take `COc1ccc(S(=O)(=O)Nc2nc(-c3ccc(OC)cc3O)cs2)cc1` [Compound 13c, N-[4-(2-Hydroxy-4-methoxyphenyl)thiazol-2-yl]-4-methoxybenzenesulfonamide]: the IC50 is 32.7 µM in [1]; 4 µM in [2]; 5.8 µM in test [3]; 15.8 µM in test [4]; 4.4 µM in [5]; 22.5 µM in test [6]. The IC50 in [7] was over 50 µM; in [8], 10 µM.

For the compound `COc1ccc(-c2csc(NS(=O)(=O)c3ccc(F)cc3)n2)c(O)c1` [Compound 13d, 4-Fluoro-N-[4-(2-hydroxy-4-methoxyphenyl)thiazol-2-yl]benzenesulfonamide], the half-maximal inhibitory concentration (IC50) in test [1] is over 50 µM; in [2] it was 7.2 µM; in test [3] it was 13.8 µM; in test [4] it was 31.4 µM; in [5], 11.2 µM; in [6], over 50 µM. Further, the IC50 in test [7] and in [8] was over 50 µM throughout.

Take `COc1ccc(-c2csc(NS(=O)(=O)c3ccc(Cl)cc3)n2)c(O)c1` [Compound 13e, 4-Chloro-N-[4-(2-hydroxy-4-methoxyphenyl)thiazol-2-yl]benzenesulfonamide]: the IC50 is over 50 µM in [1]; over 50 µM in [2]; over 50 µM in test [3]; over 50 µM in [4]; 13.4 µM in [5]; over 50 µM in test [6]. For the same compound, the IC50 in test [7] and in test [8] was over 50 µM throughout.

For `COc1ccc(-c2csc(NS(=O)(=O)c3ccc(Br)cc3)n2)c(O)c1` [Compound 13f, 4-Bromo-N-[4-(2-hydroxy-4-methoxyphenyl)thiazol-2-yl]benzenesulfonamide], the concentration for half-maximal inhibition (IC50) in test [1] was over 50 µM; in test [2], over 50 µM; in test [3], 16.4 µM; in [4], 22.8 µM; in [5] it was 11 µM; in test [6], over 50 µM. In addition, the half-inhibitory concentration (IC50) in test [7] and in test [8] was over 50 µM in each case.

Regarding `COc1ccc(-c2csc(NS(=O)(=O)c3ccc([N+](=O)[O-])cc3)n2)c(O)c1` [Compound 13g, N-[4-(2-Hydroxy-4-methoxyphenyl)thiazol-2-yl]-4-nitrobenzenesulfonamide], the IC50 is 32.2 µM in [1]; over 50 µM in [2]; over 50 µM in [3]; over 50 µM in [4]; 47.8 µM in test [5]; over 50 µM in [6]. For the same compound, the IC50 in test [7] is over 50 µM; in [8], 30 µM.
